Test [1] deals with T1, hP2X2/3H (Homo sapiens, UniProt P56373+Q9UBL9).
T1 construct: expressed in transfected cells; host or cells: e.g. HEK293 or 1321N1
T1 sequence (Q9UBL9 1-471): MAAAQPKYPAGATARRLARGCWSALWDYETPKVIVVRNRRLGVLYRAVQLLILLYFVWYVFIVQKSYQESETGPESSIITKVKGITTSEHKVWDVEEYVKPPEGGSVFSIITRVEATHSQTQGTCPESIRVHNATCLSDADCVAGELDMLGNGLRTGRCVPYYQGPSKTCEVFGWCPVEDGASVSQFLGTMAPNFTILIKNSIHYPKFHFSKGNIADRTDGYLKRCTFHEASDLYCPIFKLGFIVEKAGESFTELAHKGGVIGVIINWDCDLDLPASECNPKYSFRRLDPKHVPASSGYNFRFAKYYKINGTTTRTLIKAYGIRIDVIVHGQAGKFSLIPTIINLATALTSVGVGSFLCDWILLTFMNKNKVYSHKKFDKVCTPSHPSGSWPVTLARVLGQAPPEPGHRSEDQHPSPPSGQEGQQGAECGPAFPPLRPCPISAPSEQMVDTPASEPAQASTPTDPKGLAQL
T1 sequence (P56373 1-397): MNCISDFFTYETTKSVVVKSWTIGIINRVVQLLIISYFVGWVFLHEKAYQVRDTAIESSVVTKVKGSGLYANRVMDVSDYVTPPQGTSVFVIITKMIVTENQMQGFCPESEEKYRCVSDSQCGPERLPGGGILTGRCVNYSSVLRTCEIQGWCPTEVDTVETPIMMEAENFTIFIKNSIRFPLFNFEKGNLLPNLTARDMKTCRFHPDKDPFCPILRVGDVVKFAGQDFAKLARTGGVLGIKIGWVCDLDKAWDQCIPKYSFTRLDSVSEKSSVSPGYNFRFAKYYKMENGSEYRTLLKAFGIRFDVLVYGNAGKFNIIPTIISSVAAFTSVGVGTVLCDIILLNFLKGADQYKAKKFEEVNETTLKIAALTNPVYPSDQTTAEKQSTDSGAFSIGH
Briefly: Calcium uptake assay (P2X antagonist assay), P2X2/3 heteromer. Conditions: hP2X2/3H. The format is cell-based. The essentials:
(§1)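 Stably or transiently transfected HEK293 or 1321N1 cells; the heteromer is made by adding P2X3 to a P2X2-stable line, with heteromer function isolated pharmacologically. The peak-minus-baseline FLIPR calcium signal gives % inhibition and a 4-parameter-logistic IC50.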

The target of test [2] is T2, hP2X3 (Homo sapiens, UniProt P56373).
T2 construct: expressed in transfected cells; host or cells: e.g. HEK293 or 1321N1
T2 sequence (P56373 1-397): T1 sequence (P56373 1-397)
Briefly: Calcium uptake assay (P2X antagonist assay), P2X3 homomer. The format is cell-based. Conditions: hP2X3. The essentials:
as §1

Where [3] appears, read: calcium uptake assay, read-out: IC50 hP2X2/3H (nM), Ca Influx.
[4] abbreviates: calcium uptake assay, read-out: IC50 hP2X3 (nM), Ca Influx.
Setting [5] is: Ca influx (calcium uptake assay), read-out: IC50 hP2X2/3H.
Where [6] appears, read: Ca influx (calcium uptake assay), read-out: IC50 hP2X3.

Experimental findings from patent publication US8946439B2, “Amide compounds, compositions and uses thereof” (Evotec AG, priority 2008, dated 2015) are described below.

Read-outs that look alike come from different tables or passages of the source. A value given as a limit tells only on which side of the number the result lay.

As for `Cc1ccc(-c2cc(C(=O)NCc3ccc(C)nc3)cc(C(=O)N(C)Cc3ccncc3)c2)cc1` [Compound 162, N3,4′-Dimethyl-N-5-((6-methylpyridin-3-yl)methyl)-N3-(pyridin-4-ylmethyl)biphenyl-3,5-dicarboxamide], the IC50 in test [1] (setting [3]) and in test [2] (setting [4]) was below 100 nM each time.

As for `Cc1ccc(-c2cc(C(=O)NCc3ccc(C)nc3)cc(C(=O)N(C)c3ccncc3)c2)cc1` [Compound 163, N3,4′-Dimethyl-N5-((6-methylpyridin-3-yl)methyl)-N3-(pyridin-4-yl)biphenyl-3,5-dicarboxamide], the IC50 in test [1] (setting [3]) is 100 to 500 nM; in test [2] (setting [4]), below 100 nM.

Take `Cc1ccc(-c2cc(C(=O)NCc3ccc(C)nc3)cc(C(=O)N(C)c3ccccn3)c2)cc1` [Compound 164]: the IC50 in test [1] (setting [3]) was 100 to 500 nM; in test [2] (setting [4]) it was below 100 nM.

As to `Cc1ccc(-c2cc(C(=O)NCc3ccc(C)nc3)cc(C(=O)N(C)[C@@H]3CCNC3)c2)cc1` [Compound 165, (R)—N3,4′-Dimethyl-N5-((6-methylpyridin-3-yl)methyl)-N3-(pyrrolidin-3-yl)biphenyl-3,5-dicarboxamide], the IC50 in test [1] (setting [3]) fell in the range of 501 to 1000 nM; in test [2] (setting [4]), 100 to 500 nM.

Consider `Cc1ccc(-c2cc(C(=O)NCc3ccc(C)nc3)cc(C(=O)N(C)C)c2)cc1` [Compound 166, N3,N3,4′-Trimethyl-N5-((6-methylpyridin-3-yl)methyl)biphenyl-3,5-dicarboxamide], for which the IC50 in test [1] (setting [3]) is 100 to 500 nM; in test [2] (setting [4]) it was below 100 nM.

`Cc1ccc(-c2cc(C(=O)NCc3ccc(C)nc3)cc(C(=O)N(C)C3CCNCC3)c2)cc1` [Compound 167]: the IC50 in test [1] (setting [3]) was above 1000 nM; in test [2] (setting [4]) it was 100 to 500 nM.

As to `Cc1ccc(-c2cc(C(=O)NCc3ccc(C)nc3)cc(C(=O)N(C)CC(F)(F)F)c2)cc1` [Compound 168, N3,4′-Dimethyl-N5-((6-methylpyridin-3-yl)methyl)-N3-(2,2,2-trifluoroethyl)biphenyl-3,5-dicarboxamide], the IC50 in test [1] (setting [3]) and in test [2] (setting [4]) was below 100 nM in each case.

For `Cc1ccc(-c2cc(C(=O)NCc3ccc(C)nc3)cc(C(=O)N(C)CC3CCNCC3)c2)cc1` [Compound 169], the IC50 in test [1] (setting [3]) and in test [2] (setting [4]) was 100 to 500 nM throughout.

In the case of `CCN(CC)C(=O)c1cc(C(=O)NCc2cnc(C)nc2)cc(-c2ccc(C)cc2)c1` [Compound 170], the IC50 was 100 to 500 nM in test [1] (setting [3]) and below 100 nM in test [2] (setting [4]).

For the molecule `Cc1ccc(-c2cc(C(=O)N[C@H](C)c3ccc(C)nc3)cc(S(C)(=O)=O)c2)cc1` [Compound 171], the IC50 in test [1] (setting [3]) and in test [2] (setting [4]) was below 100 nM throughout.

`Cc1ccc(-c2cc(C(=O)NCc3ccc(C)nc3)cc(C(=O)N(C)[C@H]3CCNC3)c2)cc1` [Compound 172]: the values for the IC50 in test [1] (setting [3]) and in test [2] (setting [4]) were 100 to 500 nM and below 100 nM, respectively.

Regarding `Cc1ccc(-c2cc(C(=O)N[C@H](C)c3ccc(C)nc3)cc(C(=O)N3CCCC3)c2)nc1` [Compound 173], the IC50 in test [1] (setting [3]) and in test [2] (setting [4]) was below 100 nM in each case.

Turning to `Cc1ccc(-c2cc(C(=O)N[C@H](C)c3cnc(C)nc3)cc(C(=O)N3CCCC3)c2)nc1` [Compound 174], the IC50 in test [1] (setting [3]) and in test [2] (setting [4]) was below 100 nM each time.

Turning to `Cc1ccc(-c2cc(C(=O)NC(C)c3csc(C)n3)cc(C(=O)N3CCCC3)c2)nc1` (stereo not drawn) [Compound 175], the IC50 is 100 to 500 nM in test [1] (setting [3]) and below 100 nM in test [2] (setting [4]).

Consider `Cc1ccc(-c2cc(C(=O)N[C@H](C)c3ccc(C)nc3)cc(C(=O)N3CCCC3)c2)cc1` [Compound 176], for which the IC50 in test [1] (setting [3]) and in test [2] (setting [4]) was below 100 nM throughout.

As for `Cc1ccc(-c2cc(C(=O)N[C@@H](C)c3ccc(C)nc3)cc(C(=O)N3CCCC3)c2)cc1` [Compound 177], the IC50 in test [1] (setting [3]) and in test [2] (setting [4]) was above 1000 nM throughout.

In the case of `Cc1ccc(-c2cc(C(=O)N[C@H](C)c3ccc(C)nc3)cc(C(=O)N3CC[C@@H](O)C3)c2)nc1` [Compound 178], the IC50 in test [1] (setting [3]) and in test [2] (setting [4]) was below 100 nM in each case.

With `Cc1ccc(-c2cc(C(=O)NCc3ccc(C)nc3)cc(C(=O)N3CC[C@@H](O)C3)c2)nc1` [Compound 179], the IC50 in test [1] (setting [3]) and in test [2] (setting [4]) was below 100 nM each time.

With `Cc1ccc(-c2cc(C(=O)N[C@H](C)c3ccc(C(F)(F)F)nc3)cc(S(C)(=O)=O)c2)nc1` [Compound 181, (R)-3-(5-Methylpyridin-2-yl)-5-(methylsulfonyl)-N-(1-(6-(trifluoromethyl)pyridin-3-yl)ethyl)benzamide], the IC50 in test [1] (setting [3]) is 100 to 500 nM; in test [2] (setting [4]), below 100 nM.

As for `Cc1ccc(-c2cc(C(=O)NCc3ccc(C)nc3)cc(S(=O)(=O)CC(C)C)c2)cc1` [Compound 183], the IC50 in test [1] (setting [3]) and in test [2] (setting [4]) was below 100 nM in each case.

As to `Cc1ccc(-c2cc(C(=O)NCc3cnc(C)nc3)cc(S(=O)(=O)CC(C)C)c2)cc1` [Compound 184], the IC50 in test [1] (setting [3]) and in test [2] (setting [4]) was below 100 nM throughout.

For `Cc1ccc(-c2cc(C(=O)NCc3ccc(C)nc3)cc(C(=O)N3Cc4ccccc4C3)c2)cc1` [Compound 185, 5-(Isoindoline-2-carbonyl)-4′-methyl-N-((6-methylpyridin-3-yl)methyl)biphenyl-3-carboxamide], the IC50 in test [1] (setting [3]) and in test [2] (setting [4]) was 100 to 500 nM each time.

On to `Cc1ccc(-c2cc(C(=O)NCc3ccc(C)nc3)cc(C(=O)N3CCc4ccccc43)c2)cc1` [Compound 186], for which the IC50 is below 100 nM in test [1] (setting [3]) and 100 to 500 nM in test [2] (setting [4]).

Consider `Cc1ccc(-c2cc(C(=O)NCc3ccc(C)nc3)cc(C(=O)N3CCc4ccccc4C3)c2)cc1` [Compound 187, 4′-Methyl-N-((6-methylpyridin-3-yl)methyl)-5-(1,2,3,4-tetrahydroisoquinoline-2-carbonyl)biphenyl-3-carboxamide], for which the IC50 in test [1] (setting [3]) and in test [2] (setting [4]) was 100 to 500 nM throughout.

For `Cc1ccc(-c2cc(C(=O)NCc3ccc(C)nc3)cc(C(=O)N3CCCc4ccccc43)c2)cc1` [Compound 188], the IC50 in test [1] (setting [3]) and in test [2] (setting [4]) was 100 to 500 nM each time.

Turning to `Cc1ccc(-c2cc(C(=O)NCc3ccc(C)nc3)cc(C(=O)N3C(C)CCC3C)c2)cc1` (stereo not drawn) [Compound 189], the IC50 in test [1] (setting [3]) and in test [2] (setting [4]) was below 100 nM throughout.

Consider `Cc1ccc(-c2cc(C(=O)NCc3ccc(C)nc3)cc(C(=O)N3CCOc4ccccc43)c2)cc1` [Compound 190], for which the figures for the IC50 in test [1] (setting [3]) and in test [2] (setting [4]) were below 100 nM and 100 to 500 nM, respectively.

On to `Cc1ccc(-c2cc(C(=O)N[C@H](C)c3cnc(C)nc3)cc(C(=O)N3CCN4CCCC4C3)c2)cc1` (stereo partly drawn) [Compound 191, 4′-Methyl-N—((R)-1-(2-methylpyrimidin-5-yl)ethyl)-5-(octahydropyrrolo[1,2-a]pyrazine-2-carbonyl)biphenyl-3-carboxamide], for which the IC50 in test [1] (setting [3]) and in test [2] (setting [4]) was below 100 nM in each case.

Consider `Cc1ccc(-c2cc(C(=O)N[C@H](C)c3ccc(C)nc3)cc(C(=O)N3CCN4CCCC4C3)c2)cc1` (stereo partly drawn) [Compound 192], for which the IC50 in test [1] (setting [3]) and in test [2] (setting [4]) was below 100 nM each time.

Regarding `Cc1ccc(-c2cc(C(=O)NCc3ccc(C)nc3)cc(C(=O)N3C4CCC3CC4)c2)cc1` [Compound 193], the IC50 in test [1] (setting [3]) and in test [2] (setting [4]) was below 100 nM each time.

As to `Cc1ccc(-c2cc(C(=O)N[C@H](C)c3cnc(C)nc3)cc(S(=O)(=O)CC(C)C)c2)cc1` [Compound 194], the IC50 in test [1] (setting [3]) and in test [2] (setting [4]) was below 100 nM each time.

As to `Cc1ccc(-c2cc(C(=O)NCc3ccc(C)nc3)cc(C(=O)N3[C@H](C)CC[C@H]3C)c2)cc1` [Compound 195], the IC50 in test [1] (setting [3]) and in test [2] (setting [4]) was below 100 nM in each case.

For `Cc1ccc(-c2cc(C(=O)N[C@H](C)c3ccc(C)nc3)cc(S(=O)(=O)CC(C)C)c2)cc1` [Compound 196], the IC50 is below 100 nM in test [1] (setting [3]) and 100 to 500 nM in test [2] (setting [4]).

Turning to `Cc1ccc(-c2cc(C(=O)N[C@H](C)c3ccc(C)nc3)cc(S(=O)(=O)C(C)C)c2)cc1` [Compound 197], the IC50 in test [1] (setting [3]) and in test [2] (setting [4]) was below 100 nM throughout.

`Cc1ccc(-c2cc(C(=O)N[C@H](C)c3cnc(C)nc3)cc(S(=O)(=O)C(C)C)c2)cc1` [Compound 198]: the IC50 in test [1] (setting [5]) and in test [2] (setting [6]) was below 100 nM in each case.

With `Cc1ccc(-c2cc(C(=O)NCc3ccc(C)nc3)cc(S(=O)(=O)C(C)C)c2)cc1` [Compound 199], the IC50 in test [1] (setting [5]) and in test [2] (setting [6]) was below 100 nM throughout.
